Data on two compounds can be found in patent publication US5876981A, “Transglycosylation reactions employing β-galactosidase” (The Scripps Research Institute, priority 1996, dated 1999).

Common to all, as to type: biochemical, Bacillus circulans
Data set [1] deals with β-galactosidase. As to the kind of experiment: half-life in β-galactosidase-catalyzed hydrolysis (pseudo first order kinetics). The settings on record: 5 mM compound, enzyme 140 U/mmol, in D2O, NMR integration of released 3 vs remaining 4. As for the experimental part: (§1) The half-lives of compounds 2 and 4 determined from the pseudo first order kinetics of the β-galactosidase-catalyzed hydrolysis were measured as below. 2: A 0.5-mL solution of potassium phosphate buffer (50 mM, pH 7.0) containing 2 (5 mM) and β-galactosidase (140 unit per 1 mmol of 2) was measured continuously in a plastic cell with a 1 cm light path at 420 nm against a control in the absence of the enzyme. 4: A 5-mM solution of 4 and the enzyme (140 U/mmol) in D2 O was poured into an NMR tube, the ratio between the released 3 and remaining 4 was determined periodically by the integration of 6-H of 4 (3.98 ppm) and 6-H of 3 (3.88 ppm).

Test in data set [2]: as above
The conditions noted are these: potassium phosphate buffer with β-galactosidase; 5 mM compound, enzyme 140 unit per mmol, 50 mM potassium phosphate buffer pH 7.0, absorbance at 420 nm; read-out: T1/2 toward the β-galactosidase-catalyzed hydrolysis (converted). As for the experimental part:
as §1

Data set [3] deals with β-galactosidase. As to the kind of experiment: initial reaction rate of β-galactosidase-catalyzed reaction (released p-nitrophenol, 420 nm). The conditions noted are these: 0.05M donor, 0.05M potassium phosphate buffer pH 7.0, room temperature. The procedure:
FIG. 2 illustrates the comparison of β-galactosidase-catalyzed reaction using galactopyranose (GalβOpNP) and galactohexodialdose (6-oxo-GalβOpNP). (a): The reaction mixture containing 0.05M of donor, and various concentrations of N-acetyl-D-glucosamine in 0.05M potassium phosphate buffer (pH 7.0) was gently stirred at room temperature in the presence of the enzyme (140 U/mmol of donor) for 24 hours; (b) The mixture (containing the same components as described in (a)) was incubated with shaking for 5-10 min at room temperature. Absorbance was measured at 420 nm; (C) Methyl-β-N-acetyl-D-lactosamine (5) was obtained by reduction with NaBH4 followed by product isolation.
In order to determine which step is kinetically controlled, the effect of acceptors on initial reaction rate, (V)0, was investigated (FIG. 2). […] Addition of water soluble organic solvent would reduce water activity to some extent, but it often causes substrate and/or product inhibition and makes the enzyme unstable (Kieboom et al., Recl. Trav. Chim. Pays-Bas 1988, 107, 347-348). To shift the reaction toward transglycosylation in water, it is therefore necessary to kinetically control the partitioning step to favor the transglycosylation.

6'-oxo-LacNAc [Compound 4]: the “T1/2 toward the β-galactosidase-catalyzed hydrolysis” value in the data set with β-galactosidase [1] amounted to 1860 min. Regarding `O=[N+]([O-])c1ccc(O[C@@H]2O[C@H](C(O)O)[C@H](O)[C@H](O)[C@H]2O)cc1` [Compound 2, p-nitrophenyl glycoside of D-galactohexodialdose], the half-life at 5000 µM in data set [2] was 24 min. Moreover, the “substrate quality for β-galactosidase” value in the data set on β-galactosidase [3] is reported as “relatively weak substrate”.
